Assay results from patent US20240239811A1, “5-(5-(PIPERIDIN-4-YL)THIENO[3,2-C]PYRAZOL-2-YL]INDAZOLE DERIVATIVES AND RELATED COMPOUNDS AS MODULATORS FOR SPLICING NUCLEIC ACIDS AND FOR THE T” (REMIX THERAPEUTICS INC., priority 2020, published 2024).
Counter-ions that a name gives are not always drawn.

Assays:
Assay type in all cases: cell-based
[1] = system: HTT mRNA; assay: Splicing assay (RT-qPCR) monitoring HTT splice variants, canonical (CJ) and alternative (AJ) junction; conditions: 50% response, A673 or K562 cell line, 24 hours; for IC50: decrease in CJ mRNA; for AC50: increase in AJ mRNA
Description: (§1) Compounds described herein were used to modulate RNA transcript abundance in cells. The expression of a target mRNA was measured by detecting the formation of an exon-exon junction in the canonical transcript (CJ). A compound mediated exon-inclusion event was detected by observing an increase in formation of a new junction with an alternative exon (AJ). Real-time qPCR assays were used to detect these splicing switches and interrogate the potency of various compounds towards different target genes. A high-throughput real time quantitative PCR (RT-qPCR) assay was developed to measure these two isoforms of the mRNA (CJ and AJ) for an exemplary gene, HTT, together with a control housekeeping gene, GAPDH or GUSB or PPIA, used for normalization. Briefly, the A673 or K562 cell line was treated with various compounds described herein (e.g., compounds of Formula (I)). After treatment, the levels of the HTT mRNA targets were determined from each sample of cell lysate by cDNA synthesis followed by qPCR.
• Cells-to-CT 1-step kit: ThermoFisher A25602, Cells-to-CT lysis reagent: ThermoFisher 4391851C, TaqMan™ Fast Virus 1-Step Master Mix: ThermoFisher 4444436 • GAPDH: VIC-PL, ThermoFisher 4326317E (Assay: Hs99999905_ml)—used for K562/suspension cell lines • GUSB: VIC-PL, ThermoFisher 4326320E (Assay: Hs99999908_ml)—used for K562/suspension cell lines • PPIA: VIC-PL, ThermoFisher 4326316E (Assay: Hs99999904_ml)—used for A673/adherent cell lines
(§2) The A673 cell line was cultured in DMEM with 10% FBS. Cells were diluted with full growth media and plated in a 96-well plate (15,000 cells in 100ul media per well). The plate was incubated at 37° C. with 5% CO2 for 24 hours to allow cells to adhere. An 11-point 3-fold serial dilution of the compounds was made in DMSO then diluted in media in an intermediate plate. Compounds were transferred from the intermediate plate to the cell plate with the top dose at a final concentration of 10 uM in the well. Final DMSO concentration was kept at or below 0.25%. The cell plate was returned to the incubator at 37° C. with 5% CO2 for an additional 24 hours.
(§3) The K562 cell line was cultured in IMDM with 10% FBS. For K562, cells were diluted with full growth media and plated in either a 96-well plate (50,000 cells in 50 uL media per well) or a 384-well plate (8,000-40,000 cells in 45 uL media per well). An 11-point 3-fold serial dilution of the compounds were made in DMSO then diluted in media in an intermediate plate. Compound was transferred from the intermediate plate to the cell plate with the top dose at a final concentration of 10 uM in the well. Final DMSO concentration was kept at or below 0.25%. Final volume was 100 uL for 96-well plate and 50 uL for 384-well plate. The cell plate was then placed in an incubator at 37° C. with 5% CO2 for 24 hours.
The cells were then gently washed with 50 uL-100 uL cold PBS before proceeding to addition of lysis buffer. 30 uL-50 uL of room temperature lysis buffer with DNAse I (and optionally RNAsin) was added to each well. Cells were shaken/mixed thoroughly at room temperature for 5-10 minutes for lysis to take place and then 3 uL-5 uL of room temperature stop solution was added and wells were shaken/mixed again. After 2-5 minutes, the cell lysate plate was transferred to ice for RT-qPCR reaction setup. The lysates could also be frozen at −80° C. for later use.
In some cases, a direct lysis buffer was used. An appropriate volume of 3X lysis buffer (10 mM Tris, 150 mM NaCl, 1.5%-2.5% Igepal and 0.1-1 U/uL RNAsin, pH 7.4) was directly added to either K562 or A673 cells in media and mixed by pipetting 3 times. The plates were then incubated at room temperature with shaking/rocking for 20-50 minutes to allow for lysis to take place. After this time, the cell lysate plate was transferred to ice to set up for the RT-qPCR reactions. The lysates could also be frozen at −80° C. for later use. […]

[2] = system: HTT CJ mRNA; assay: Gene panel canonical junction qPCR assay, HTT; conditions: Table 6, decrease in CJ mRNA, read-out: HTT IC50 (decrease in CJ mRNA levels)
Description: as §1, §2, §3
(§4) The data analysis was performed by first determining the ΔCt vs the housekeeper gene. This ΔCt was then normalized against the DMSO control (ΔΔCt) and converted to RQ (relative quantification) using the 2^(−ΔΔCt) equation. The RQ were then converted to a percentage response by arbitrarily setting an assay window of 3.5 ΔCt for HTT-CJ and an assay window of 9 ΔCt for HTT-AJ. […] The percentage response was then fitted to the 4 parametric logistic equation to evaluate the concentration dependence of compound treatment. The increase in AJ mRNA is reported as AC50 (compound concentration having 50% response in AJ increase) while the decrease in CJ mRNA levels is reported as IC50 (compound concentration having 50% response in CJ decrease).
(§5) Additional studies were carried out for a larger panel of genes using the protocol provided above. The junction between flanking upstream and downstream exons was used to design canonical junction qPCR assays. At least one of the forward primer, reverse primer or the CY5-labeled 5′ nuclease probe (with 3′ quencher such as ZEN/Iowa Black FQ) was designed to overlap with the exon junction to capture the CJ mRNA transcript. BLAST was used to confirm the specificity of the probeset and parameters such as melting temperature, GC content, amplicon size, and primer dimer formation are considered during their design. Data for the decrease in CJ mRNA levels for three exemplary genes (HTT, SMN2, and Target C) analyzed in this panel are reported as IC50 (compound concentration having […] in CJ decrease).

[3] = system: SMN2 CJ mRNA; assay: Gene panel canonical junction qPCR assay, SMN2; conditions: Table 6, decrease in CJ mRNA, read-out: SMN2 IC50 (decrease in CJ mRNA levels)
Description: as §1, §2, §3, §4, §5

[4] = system: Target C CJ mRNA; assay: Gene panel canonical junction qPCR assay, Target C; conditions: Table 6, decrease in CJ mRNA, read-out: Target C IC50 (decrease in CJ mRNA levels)
Description: as §1, §2, §3, §4, §5

Structure (SMILES)	IC50 [1] [µM]	AC50 [1] [µM]	IC50 [2] [µM]	IC50 [3] [µM]	IC50 [4] [µM]
CC1CN(c2cc3sc(-c4cc(F)c5nn(C)cc5c4)nc3s2)CCN1C (stereo not shown) [Compound 128, 5-[5-(3,4-dimethylpiperazin-1-yl)thieno[2,3-d][1,3]thiazol-2-yl]-7-fluoro-2-methylindazole]	1 to 10	1 to 10	1 to 10	0.1 to 1	1 to 10
Cc1cn2cc(-c3nc4sc(C5CCNCC5)cc4s3)cc(F)c2n1 [Compound 130, 4-(2-[8-fluoro-2-methylimidazo[1,2-a]pyridin-6-yl]thieno[2,3-d][1,3]thiazol-5-yl)piperidine hydrochloride]	< 0.1	< 0.1	< 0.1	< 0.1	< 0.1
Cn1cc2c(F)cc(-c3nc4sc(C5CCNCC5)cc4s3)cc2n1 [Compound 131, 4-fluoro-2-methyl-6-[5-(piperidin-4-yl)thieno[2,3-d][1,3]thiazol-2-yl]indazole]	1 to 10	1 to 10	1 to 10	1 to 10	1 to 10
Cc1nc2c(F)cc(-c3nc4sc(C5CCNCC5)cc4s3)cc2o1 [Compound 132, 4-fluoro-2-methyl-6-[5-(piperidin-4-yl)thieno[2,3-d][1,3]thiazol-2-yl]-1,3-benzoxazole]	< 0.1	< 0.1	< 0.1	< 0.1	0.1 to 1
Cc1cn2nc(-c3nc4sc(C5CCNCC5)cc4s3)cc2c(C)n1 [Compound 133, 4-(2-[4,6-dimethylpyrazolo[1,5-a]pyrazin-2-yl]thieno[2,3-d][1,3]thiazol-5-yl)piperidine]	0.1 to 1	0.1 to 1	0.1 to 1	0.1 to 1	0.1 to 1
Cn1cc2cc(-c3nc4sc(N5CCNCC5)cc4s3)cc(F)c2n1 [Compound 134, 7-fluoro-2-methyl-5-[5-(piperazin-1-yl)thieno[2,3-d][1,3]thiazol-2-yl]indazole]	0.1 to 1	< 0.1	0.1 to 1	< 0.1	0.1 to 1
CC1CN(c2cc3sc(-c4cc(F)c5nn(C)cc5c4)nc3s2)CCN1 (stereo not shown) [Compound 135, 7-fluoro-2-methyl-5-[5-(3-methylpiperazin-1-yl)thieno[2,3-d][1,3]thiazol-2-yl]indazole]	0.1 to 1	0.1 to 1	0.1 to 1	< 0.1	0.1 to 1
Cn1cc2cc(-c3nc4sc(N5CCNC6(CC6)C5)cc4s3)cc(F)c2n1 [Compound 136, 5-(5-[4,7-diazaspiro[2.5]octan-7-yl]thieno[2,3-d][1,3]thiazol-2-yl)-7-fluoro-2-methylindazole]	> 10	> 10	> 10	0.1 to 1	> 10
CCNC1CCN(c2cc3sc(-c4cc(F)c5nn(C)cc5c4)nc3s2)CC1 [Compound 137, N-ethyl-1-[2-(7-fluoro-2-methylindazol-5-yl)thieno[2,3-d][1,3]thiazol-5-yl]piperidin-4-amine]	0.1 to 1	0.1 to 1	0.1 to 1	< 0.1	0.1 to 1
Cc1cn2cc(-c3nc4sc(C5CCNCC5)cc4s3)cc(Cl)c2n1 [Compound 139]	< 0.1	< 0.1	< 0.1	< 0.1	< 0.1
Cc1cn2cc(-c3nc4sc(C5CCNCC5)cc4s3)cc(C)c2n1 [Compound 140, 4-(2-[2,8-dimethylimidazo[1,2-a]pyridin-6-yl]thieno[2,3-d][1,3]thiazol-5-yl)piperidine hydrochloride]	< 0.1	< 0.1	< 0.1	< 0.1	0.1 to 1
CN1CCN(c2cc3sc(-c4cc(F)c5nn(C)cc5c4)nc3s2)CC1 [Compound 141, 7-fluoro-2-methyl-5-[5-(4-methylpiperazin-1-yl)thieno[2,3-d][1,3]thiazol-2-yl]indazole]	0.1 to 1	0.1 to 1	0.1 to 1	< 0.1	1 to 10
Cn1cc2cc(-c3nc4sc(N5CCNC(C)(C)C5)cc4s3)cc(F)c2n1 [Compound 142, 5-[5-(3,3-dimethylpiperazin-1-yl)thieno[2,3-d][1,3]thiazol-2-yl]-7-fluoro-2-methylindazole]	0.1 to 1	0.1 to 1	0.1 to 1	< 0.1	1 to 10
Cn1cc2cc(-c3nc4sc(N5CCC(NC(C)(C)C)C5)cc4s3)cc(F)c2n1 (stereo not shown) [Compound 143, N-tert-butyl-1-[2-(7-fluoro-2-methylindazol-5-yl)thieno[2,3-d][1,3]thiazol-5-yl]pyrrolidin-3-amine]	1 to 10	1 to 10	1 to 10	0.1 to 1	1 to 10
Cn1cc2cc(-c3nc4sc(N5CCN6CCCC6C5)cc4s3)cc(F)c2n1 (stereo not shown) [Compound 144, 7-fluoro-5-(5-[hexahydro-1H-pyrrolo[1,2-a]pyrazin-2-yl]thieno[2,3-d][1,3]thiazol-2-yl)-2-methylindazole]	1 to 10	0.1 to 1	1 to 10	< 0.1	> 10
CN1CCC(N(C)c2cc3sc(-c4cc(F)c5nn(C)cc5c4)nc3s2)CC1 [Compound 145, N-[2-(7-fluoro-2-methylindazol-5-yl)thieno[2,3-d][1,3]thiazol-5-yl]-N,1-dimethylpiperidin-4-amine]	> 10	> 10	> 10	0.1 to 1	> 10
CN1CC2(C1)CN(c1cc3sc(-c4cc(F)c5nn(C)cc5c4)nc3s1)C2 [Compound 146, 7-fluoro-2-methyl-5-(5-[6-methyl-2,6-diazaspiro[3.3]heptan-2-yl]thieno[2,3-d][1,3]thiazol-2-yl)indazole]	0.1 to 1	0.1 to 1	0.1 to 1	< 0.1	0.1 to 1
